Converted amounts (≈) assume the structure as drawn. Like-named read-outs stand apart in the source and are kept apart here.
Legend:
[1] = test system: Mycobacterium tuberculosis H37Rv; test: MIC and MBC by broth microdilution against M. tuberculosis H37Rv; assay type: cell-based, Mycobacterium tuberculosis H37Rv (ATCC 27294)
M. avium DSM 44156 = test: MIC and MBC against M. avium; assay type: cell-based
M. smegmatis mc2 155 = test: MIC and MBC against M. smegmatis; assay type: cell-based
M. bovis BCG = test: microbe, parasite or virus in culture; assay type: cell-based; conditions: Mycobacterium tuberculosis variant bovis BCG
[2] = Cytotoxicity assay in THP-1 cells; assay type: cell-based, human; conditions: human; THP-1 cells; lethal concentration for 50% of the cell population; read-out: LC50 (the source's name)
Excerpt: (§1) Cytotoxicity results were obtained through lethal concentration for 50% of the cell population, LC50. Table 6. Results obtained from cytotoxicity assays for the esters, represented by LD50 in µg/mL and comparison with MIC values, in µg/mL with toxicity/activity (T/A) index.
(§2) The T/A index quantitatively is the ratio between the lethal concentration (LC50) given by the minimum inhibitory concentration (MIC).

[3] = test system: human monocytic cell line THP-1 (ATCC56 TIB202); test: Cytotoxicity assay in THP-1 cells; assay type: cell-based; conditions: toxicity/activity index: ratio LC50 (THP-1) / MIC (M. tuberculosis H37Rv)
Excerpt: as §1, §2

[4] = pH 7.4
Protocol: (§3) Chemical hydrolysis was evaluated in phosphate buffer at physiological pH (7.4) to determine its influence in enzymatic studies.
(§4) 1176 µL pH 7.4 phosphate buffer or pH 5.9 phosphate buffer, 18 µL ACN and 6 µL of a 10-1 M stock solution of the prodrug in ACN were mixed in a 2mL vial. The solution was incubated at 37 °C and 50 µL aliquots were removed, mixed with 450 µL of ACN: H2O 1:1. The solution was analysed by HPLC, the remaining substrate and the correspondent acid were both measured.
(§5) The eluant was a mixture of acetonitrile (60%/70%) and aqueous phosphate buffer with 5% of KH2PO4/H3PO4 0.025M (40%/30%). The flow rate was always 1 mL/1 min and wavelength was set at 230 nm. All quantifications were evaluated using calibration curves from stock solutions.
(§6) The initial substrate concentration was 5 x 10^-4 M in all stability assays. All incubations were carried out at pH 7.4 and 37 °C under agitation using the phosphate buffer described above as diluting agent. […] Acetonitrile (2%) was used in all studies to ensure adequate solubilization of the substrates.

[5] = test system: Mycobacterium smegmatis homogenate; test: Stability in Mycobacterium smegmatis homogenate (enzymatic hydrolysis); conditions: Mycobacterium smegmatis homogenate, 37°C
[6] = test system: Mycobacterium Bovis BCG infecting human macrophages THP-1; assay type: cell-based; conditions: compound concentration 2 µg/ml
[7] = Stability in Mycobacterium smegmatis homogenate (enzymatic hydrolysis); conditions: mycobacterium smegmatis homogenate, pH 7.4
[8] = Chemical stability in phosphate buffer pH 7.4
Protocol: as §3, §4, §5, §6

[9] = Stability in human plasma (enzymatic hydrolysis)
Protocol: The studies of stability in human plasma were performed in human plasma diluted to 80% with phosphate buffer pH 7.4 of total concentration 0.05 M and ionic strength 0.15 M at 37°C. […] Study of enzymatic hydrolysis. […] Initial substrate concentration (ester) - 5×10^-4M with 2% ACN.
Pooled human plasma (960 µL), pH 7.4 phosphate buffered saline (216 µL), 18 µL ACN and 6 µL of a 10-1 M stock solution of the prodrug in ACN were mixed in a 2mL vial. The suspensions were incubated at 37 °C and 50 µL aliquots were removed, mixed with 450 µL of ACN: ZnSO4 1% 1:1 and centrifuged. The supernatant was removed and analysed by HPLC, the remaining substrate and the correspondent acid measured.
Two HPLC systems were used. The buffer and plasma stability studies were performed in an HPLC system with a photodiode detector L-3000 Photo Diode Array Detector, Merck-Hitachi L-6000 pump, Merck-Hitachi D-2500 integrator, and Merck RP-8 column. […] The eluant was a mixture of acetonitrile (60%/70%) and aqueous phosphate buffer with 5% of KH2PO4/H3PO4 0.025M (40%/30%). The flow rate was always 1 mL/1 min and wavelength was set at 230 nm. All quantifications were evaluated using calibration curves from stock solutions.
The initial substrate concentration was 5 x 10^-4 M in all stability assays. All incubations were carried out at pH 7.4 and 37 °C under agitation using the phosphate buffer described above as diluting agent. […] Acetonitrile (2%) was used in all studies to ensure adequate solubilization of the substrates. The benzoates were added from 10 to 1M acetonitrile stock solutions. After incubation, aliquots of 50 µL were taken into vials containing 450 µL of a 1:1 solution of 1% zinc sulfate and acetonitrile, mixed in a vortex and centrifuged for 10 min at 15,000 rpm. The supernatant was then injected into the HPLC and analysed for quantification of benzoic acid and remaining benzoate. All quantifications were performed using calibration curves.

[10] = Mycobacterium tuberculosis, H37RV, M. tuberculosis H37Rv, Table 3
[11] = Mycobacterium tuberculosis, H37RV, M. tuberculosis H37Rv, Table 4
[12] = Mycobacterium tuberculosis, H37RV, M. tuberculosis H37Rv, Tables 3, 6 and 7
[13] = Mycolicibacterium smegmatis, MC2155

Molecule | MBC [1, 10] | MBC [1, 11] | MIC [1, 11] | MIC [1, 12] | MBC (M. avium DSM 44156; Mycobacterium avium, DSM44156) | MIC (M. avium DSM 44156; Mycobacterium avium, DSM44156) | MBC (M. smegmatis mc2 155; [13]) | MIC (M. smegmatis mc2 155; [13]) | MBC (M. bovis BCG) | MIC (M. bovis BCG) | CC50 [2] | T/A [3] | Degradation (%) 24h [5] | Degradation (%) 48h [5] | CFU x10^4 ([6]; Time 0 days) | CFU x10^4 ([6]; Time 1 day) | CFU x10^4 ([6]; Time 3 days) | CFU x10^4 ([6]; Time 7 days) | also measured
CCCCCCCCNC(=O)c1cc([N+](=O)[O-])cc([N+](=O)[O-])c1 [Compound 7c, N-octyl-3.5-dinitrobenzamide] | 0.016 mg/L (≈ 0.0495 µM) | ≤ 0.062 mg/L | ≤ 0.062 mg/L | 0.016 mg/L (≈ 0.0495 µM) | 64 mg/L (≈ 198 µM) | 32 mg/L (≈ 99 µM) | 4 mg/L (≈ 12.4 µM) | 0.25 mg/L (≈ 0.773 µM) | 0.015 mg/L (≈ 0.0464 µM) | 0.015 mg/L (≈ 0.0464 µM) | 97 mg/L (≈ 300 µM) | 6063 | 3% | 5% |  |  |  |  | Degradation (%) 24h [4]: 0%; Degradation (%) 48h [4]: 0%; Degradation (%) 72h [4]: 0%; Degradation (%) 168h [4]: 0%; Degradation (%) 332h [4]: 0%
N-butyl-3.5-dinitrobenzamide [Compound 7a] |  |  |  |  |  |  |  |  |  |  |  |  |  |  |  |  |  |  | MBC [1]: 0.5 mg/L; MIC [1]: 0.5 mg/L; MBC (M. avium DSM 44156; M. avium DSM 44156): 512 mg/L; MIC (M. avium DSM 44156; M. avium DSM 44156): 64 mg/L; MBC (M. smegmatis mc2 155; M. smegmatis mc2 155): 4 mg/L; MIC (M. smegmatis mc2 155; M. smegmatis mc2 155): 4 mg/L
CCCCCCCCCCNC(=O)c1cc([N+](=O)[O-])cc([N+](=O)[O-])c1 [Compound 7d, N-decyl-3.5-dinitrobenzamide] | 0.063 mg/L (≈ 0.179 µM) | ≤ 0.5 mg/L | ≤ 0.5 mg/L | 0.063 mg/L (≈ 0.179 µM) |  |  | 1 mg/L (≈ 2.85 µM) | 1 mg/L (≈ 2.85 µM) | 0.062 mg/L (≈ 0.176 µM) | 0.062 mg/L (≈ 0.176 µM) | 53 mg/L (≈ 151 µM) | 841 | 1% | 2% | 9.2 CFUs per mL | 7.33 CFUs per mL | 0.32 CFUs per mL | 0.03 CFUs per mL | 
CCCCCCCCCCCCCCNC(=O)c1cc([N+](=O)[O-])cc([N+](=O)[O-])c1 [Compound 7f, N-tetradecyl-3.5-dinitrobenzamide] | 0.25 mg/L (≈ 0.613 µM) | ≤ 0.5 mg/L | ≤ 0.5 mg/L | 0.125 mg/L (≈ 0.307 µM) |  |  | 4 mg/L (≈ 9.82 µM) | 1 mg/L (≈ 2.45 µM) | 0.25 mg/L (≈ 0.613 µM) | 0.25 mg/L (≈ 0.613 µM) | 330 mg/L (≈ 810 µM) | 2640 | 1% | 2% | 9.2 CFUs per mL | 14.16 CFUs per mL | 10.08 CFUs per mL | 13.91 CFUs per mL | 
CCCCCCNC(=O)c1cc([N+](=O)[O-])cc([N+](=O)[O-])c1 [Compound 7b, N-hexyl-3.5-dinitrobenzamide] | 0.031 mg/L (≈ 0.105 µM) | ≤ 0.5 mg/L | ≤ 0.5 mg/L | 0.031 mg/L (≈ 0.105 µM) |  |  | 1 mg/L (≈ 3.39 µM) | 1 mg/L (≈ 3.39 µM) | 0.25 mg/L (≈ 0.847 µM) | 0.25 mg/L (≈ 0.847 µM) | 361 mg/L (≈ 1220 µM) | 11645 | 18% | 33% | 9.2 CFUs per mL | 4.58 CFUs per mL | 0.40 CFUs per mL | 0.05 CFUs per mL | half-life at 500 µM [7]: 82.5 ± 1.4 h
CCCCCCCCCCCCNC(=O)c1cc([N+](=O)[O-])cc([N+](=O)[O-])c1 [Compound 7e, N-dodecyl-3.5-dinitrobenzamide] | 0.5 mg/L (≈ 1.32 µM) | 0.5 mg/L (≈ 1.32 µM) | 0.5 mg/L (≈ 1.32 µM) | 0.5 mg/L (≈ 1.32 µM) | > 341 mg/L | > 341 mg/L | > 2.66 mg/L | 0.66 mg/L (≈ 1.74 µM) | 0.166 mg/L (≈ 0.437 µM) | 0.083 mg/L (≈ 0.219 µM) | 72 mg/L (≈ 190 µM) | 144 | 1% | 2% |  |  |  |  | Degradation (%) 24h ([8]; 24h): 0%; Degradation (%) 48h ([8]; 48h): 0%; Degradation (%) 72h ([8]; 72h): 0%; Degradation (%) 168h ([8]; 168h): 0%; Degradation (%) 332h ([8]; 332h): 0%; Degradation (%) 24h ([9]; 24h): 0%; Degradation (%) 48h ([9]; 48h): 0%; Degradation (%) 72h ([9]; 72h): 0%

— EP4345091A1, “BENZOIC ACID DERIVATIVES, METHODS AND USES THEREOF” (priority 2022, dated 2024)
